Measurements from patent US12473304B2, “Heterocyclic PAD4 inhibitors” (BRISTOL-MYERS SQUIBB COMPANY, priority 2020, dated 2025).

molecular target: human PAD4 (hPAD4) (Homo sapiens (Human), UniProt Q9UM07); experiment: RFMS Human PAD4 Functional Assay 1; assay type: biochemical; details: RFMS assay 1; 5 nM hPAD4, 250 μM BAEE substrate, 50 μM calcium, 37° C.
Method in brief: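 Citrullination product read by RapidFire triple-quad MRM against a modified-citrulline internal standard, after TCA stop and 30 min phenyl glyoxal step at 37 °C. Reaction: 250 μM BAEE, 5 nM human PAD4, 90 min at 37 °C, pH 7.5 HEPES buffer with 50 μM calcium and 5 μM TPEN, following 30 min compound–enzyme preincubation (max 50 μM).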

Chain of human PAD4 (hPAD4) (Q9UM07 whole entry): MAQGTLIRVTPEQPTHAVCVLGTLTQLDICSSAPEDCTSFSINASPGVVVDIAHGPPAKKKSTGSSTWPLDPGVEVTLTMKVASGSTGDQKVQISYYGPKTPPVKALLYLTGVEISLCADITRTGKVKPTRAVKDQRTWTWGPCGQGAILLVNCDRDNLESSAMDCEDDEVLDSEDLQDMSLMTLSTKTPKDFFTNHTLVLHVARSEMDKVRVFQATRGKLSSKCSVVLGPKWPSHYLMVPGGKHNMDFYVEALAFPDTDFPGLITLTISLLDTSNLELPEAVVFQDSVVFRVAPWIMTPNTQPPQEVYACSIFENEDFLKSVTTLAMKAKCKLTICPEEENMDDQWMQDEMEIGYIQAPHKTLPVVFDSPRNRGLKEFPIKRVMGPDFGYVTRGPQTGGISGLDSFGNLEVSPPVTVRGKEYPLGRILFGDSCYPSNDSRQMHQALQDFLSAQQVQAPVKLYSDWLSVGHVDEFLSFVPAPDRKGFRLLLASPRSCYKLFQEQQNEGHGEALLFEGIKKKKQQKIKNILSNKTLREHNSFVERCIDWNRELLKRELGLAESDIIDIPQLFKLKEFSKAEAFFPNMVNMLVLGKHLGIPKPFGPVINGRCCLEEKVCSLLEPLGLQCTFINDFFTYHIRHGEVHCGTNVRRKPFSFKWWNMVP

| SMILES | IC50 |
| --- | --- |
| Cc1c(-c2cc3ccc(-c4ccc5c(c4)C(=O)NC5)nc3n2CC2CC2)nn2cc(C(=O)N3C[C@H](N)C[C@@H](F)C3)ccc12 [Example 83, 6-(2-(6-((3R,5R)-3-Amino-5-fluoropiperidine-1-carbonyl)-3-methylpyrazolo[1,5-a]pyridin-2-yl)-1-(cyclopropylmethyl)-1H-pyrrolo[2,3-b]pyridin-6-yl)isoindolin-1-one] | 384 nM |
| Cc1c(-c2cc3ccc(-c4ccc(C(N)=O)c(F)c4)nc3n2CC2CC2)nn2cc(C(=O)N3C[C@H](N)C[C@@H](F)C3)ccc12 [Example 84, 4-(2-(6-((3R,5R)-3-Amino-5-fluoropiperidine-1-carbonyl)-3-methylpyrazolo[1,5-a]pyridin-2-yl)-1-(cyclopropylmethyl)-1H-pyrrolo[2,3-b]pyridin-6-yl)-2-fluorobenzamide] | 610 nM |
| Cc1c(-c2cc3ccc(-c4ccc(C(N)=O)c(Cl)c4)nc3n2CC2CC2)nn2cc(C(=O)N3C[C@H](N)C[C@@H](F)C3)ccc12 [Example 85, 4-(2-(6-((3R,5R)-3-Amino-5-fluoropiperidine-1-carbonyl)-3-methylpyrazolo[1,5-a]pyridin-2-yl)-1-(cyclopropylmethyl)-1H-pyrrolo[2,3-b]pyridin-6-yl)-2-chlorobenzamide] | 327 nM |
| COC1CCN(c2ccc3cc(-c4nn5cc(C(=O)N6C[C@H](N)C[C@@H](F)C6)ccc5c4C)n(CC4CC4)c3n2)CC1 [Example 87, ((3R,5R)-3-Amino-5-fluoropiperidin-1-yl)(2-(1-(cyclopropylmethyl)-6-(4-methoxypiperidin-1-yl)-1H-pyrrolo[2,3-b]pyridin-2-yl)-3-methylpyrazolo[1,5-a]pyridin-6-yl)methanone] | 2320 nM |
| Cc1c(-c2cc3ccc(N4CCC(O)CC4)nc3n2CC2CC2)nn2cc(C(=O)N3C[C@H](N)C[C@@H](F)C3)ccc12 [Example 88, ((3R,5R)-3-Amino-5-fluoropiperidin-1-yl)(2-(1-(cyclopropylmethyl)-6-(4-hydroxypiperidin-1-yl)-1H-pyrrolo[2,3-b]pyridin-2-yl)-3-methylpyrazolo[1,5-a]pyridin-6-yl)methanone] | 1680 nM |
| Cc1c(-c2cc3ccc(N4CC(F)(CO)C4)cc3n2CC2CC2)nn2cc(C(=O)N3CC4CCC3[C@@H]4N)ccc12 (stereo partly drawn) [Example 91, ((7R)-7-Amino-2-azabicyclo[2.2.1]heptan-2-yl)(2-(1-(cyclopropylmethyl)-6-(3-fluoro-3-(hydroxymethyl)azetidin-1-yl)-1H-indol-2-yl)-3-methylpyrazolo[1,5-a]pyridin-6-yl)methanone] | 602 nM |
| Cc1c(-c2cc3ccc(-c4cccc(O)c4F)cc3n2CC2CC2)nn2cc(C(=O)N3C[C@H](N)C[C@@H](F)C3)ccc12 [Example 92, ((3R,5R)-3-Amino-5-fluoropiperidin-1-yl)(2-(1-(cyclopropylmethyl)-6-(2-fluoro-3-hydroxyphenyl)-1H-indol-2-yl)-3-methylpyrazolo[1,5-a]pyridin-6-yl)methanone] | 672 nM |
| Cc1c(-c2cc3ccc(-c4ccc(O)c(F)c4)cc3n2CC2CC2)nn2cc(C(=O)N3C[C@H](N)C[C@@H](F)C3)ccc12 [Example 94, ((3R,5R)-3-Amino-5-fluoropiperidin-1-yl)(2-(1-(cyclopropylmethyl)-6-(3-fluoro-4-hydroxyphenyl)-1H-indol-2-yl)-3-methylpyrazolo[l,5-a]pyridin-6-yl)methanone] | 934 nM |
| Cc1c(-c2cc3ccc(-c4ccc5c(c4)C(=O)NC5)cc3n2CC2CC2)nn2cc(C(=O)N3C[C@H](N)C[C@@H](F)C3)ccc12 [Example 96, 6-(2-(6-((3R,5R)-3-Amino-5-fluoropiperidine-1-carbonyl)-3-methylpyrazolo[1,5-a]pyridin-2-yl)-1-(cyclopropylmethyl)-1H-indol-6-yl)isoindolin-1-one] | 588 nM |
| COc1cc(C(=O)N2C[C@H](N)C[C@@H](F)C2)cn2nc(-c3cc4ccc(C(C)(O)C(F)(F)F)cc4n3CC3CC3)c(C)c12 (stereo partly drawn) [Example 99, ((3R,5R)-3-Amino-5-fluoropiperidin-1-yl)(2-(1-(cyclopropylmethyl)-6-(1,1,1-trifluoro-2-hydroxypropan-2-yl)-1H-indol-2-yl)-4-methoxy-3-methylpyrazolo[1,5-a]pyridin-6-yl)methanone] | 307 nM |
| Cc1c(-c2cc3ccc(Cl)nc3n2CC2CC2)nn2cc(C(=O)N3CC4CCC3[C@@H]4N)cnc12 (stereo partly drawn) [Example 108, ((7R)-7-Amino-2-azabicyclo[2.2.1]heptan-2-yl)(2-(6-chloro-1-(cyclopropylmethyl)-1H-pyrrolo[2,3-b]pyridin-2-yl)-3-methylpyrazolo[1,5-a]pyrimidin-6-yl)methanone] | 907 nM |
| Cc1c(-c2cc3ccc(-c4cccc(O)c4F)nc3n2CC2CC2)nn2cc(C(=O)N3CC4CCC3[C@@H]4N)cnc12 (stereo partly drawn) [Example 109, ((7R)-7-Amino-2-azabicyclo[2.2.1]heptan-2-yl)(2-(1-(cyclopropylmethyl)-6-(2-fluoro-3-hydroxyphenyl)-1H-pyrrolo[2,3-b]pyridin-2-yl)-3-methylpyrazolo[1,5-a]pyrimidin-6-yl)methanone] | 292 nM |

Now those with a lower IC50, led by results:

| IC50 | SMILES |
| --- | --- |
| 220 nM | Cc1c(-c2cc3ccc(-c4ccc(C(N)=O)c(F)c4)cc3n2CC2CC2)nn2cc(C(=O)N3C[C@H](N)C[C@@H](F)C3)ccc12 [Example 93, 4-(2-(6-((3R,5R)-3-Amino-5-fluoropiperidine-1-carbonyl)-3-methylpyrazolo[1,5-a]pyridin-2-yl)-1-(cyclopropylmethyl)-1H-indol-6-yl)-2-fluorobenzamide] |
| 219 nM | Cc1c(-c2cc3ccc(-c4cccc(O)c4F)nc3n2CC2CC2)nn2cc(C(=O)N3C[C@H](N)C[C@@H](F)C3)ccc12 [Example 86, ((3R,5R)-3-Amino-5-fluoropiperidin-1-yl)(2-(1-(cyclopropylmethyl)-6-(2-fluoro-3-hydroxyphenyl)-1H-pyrrolo[2,3-b]pyridin-2-yl)-3-methylpyrazolo[1,5-a]pyridin-6-yl)methanone] |
| 133 nM | Cc1c(-c2cc3ccc(-c4ccc5c(c4)CNC5=O)cc3n2CC2CC2)nn2cc(C(=O)N3C[C@H](N)C[C@@H](F)C3)ccc12 [Example 95, 5-(2-(6-((3R,5R)-3-Amino-5-fluoropiperidine-1-carbonyl)-3-methylpyrazolo[1,5-a]pyridin-2-yl)-1-(cyclopropylmethyl)-1H-indol-6-yl)isoindolin-1-one] |
| 107 nM | Cc1c(-c2cc3ccc(C(C)(C)O)nc3n2CC2CC2)nn2cc(C(=O)N3C[C@H](N)C[C@@H](F)C3)ccc12 [Example 105, ((3R,5R)-3-Amino-5-fluoropiperidin-1-yl)(2-(1-(cyclopropylmethyl)-6-(2-hydroxypropan-2-yl)-1H-pyrrolo[2,3-b]pyridin-2-yl)-3-methylpyrazolo[1,5-a]pyridin-6-yl)methanone] |
| 48 nM | Cc1c(-c2cc3ccc(-c4ccc5c(c4)C(=O)NC5)cc3n2CC2CC2)nn2cc(C(=O)N3CC4CCC3[C@@H]4N)ccc12 (stereo partly drawn) [Example 89, 6-(2-(6-((7R)-7-Amino-2-azabicyclo[2.2.1]heptane-2-carbonyl)-3-methylpyrazolo[1,5-a]pyridin-2-yl)-1-(cyclopropylmethyl)-1H-indol-6-yl)isoindolin-1-one] |
| 36 nM | Cc1c(-c2cc3ccc(C(C)(C)O)cc3n2CC2CC2)nn2cc(C(=O)N3CC4CCC3[C@@H]4N)ccc12 (stereo partly drawn) [Example 100, ((7R)-7-Amino-2-azabicyclo[2.2.1]heptan-2-yl)(2-(1-(cyclopropylmethyl)-6-(2-hydroxypropan-2-yl)-1H-indol-2-yl)-3-methylpyrazolo[1,5-a]pyridin-6-yl)methanone] |
| 34 nM | Cc1c(-c2cc3ccc(C(C)(O)C(F)(F)F)nc3n2CC2CC2)nn2cc(C(=O)N3CC4CCC3[C@@H]4N)ccc12 (stereo partly drawn) [Example 103, ((7R)-7-Amino-2-azabicyclo[2.2.1]heptan-2-yl)(2-(1-(cyclopropylmethyl)-6-(1,1,1-trifluoro-2-hydroxypropan-2-yl)-1H-pyrrolo[2,3-b]pyridin-2-yl)-3-methylpyrazolo[1,5-a]pyridin-6-yl)methanone] |
| 25 nM | Cc1c(-c2cc3ccc(C(C)O)nc3n2CC2CC2)nn2cc(C(=O)N3CC4CCC3[C@@H]4N)ccc12 (stereo partly drawn) [Example 104, ((7R)-7-Amino-2-azabicyclo[2.2.1]heptan-2-yl)(2-(1-(cyclopropylmethyl)-6-(1-hydroxyethyl)-1H-pyrrolo[2,3-b]pyridin-2-yl)-3-methylpyrazolo[1,5-a]pyridin-6-yl)methanone] |
| 14 nM | COc1cc(C(=O)N2C[C@H](N)C[C@@H](F)C2)cn2nc(-c3cc4ccc(C(C)(C)O)cc4n3CC3CC3)c(C)c12 [Example 98, ((3R,5R)-3-Amino-5-fluoropiperidin-1-yl)(2-(1-(cyclopropylmethyl)-6-(2-hydroxypropan-2-yl)-1H-indol-2-yl)-4-methoxy-3-methylpyrazolo[1,5-a]pyridin-6-yl)methanone] |
| 12 nM | Cc1c(-c2cc3ccc(-c4ccc5c(c4)CNC5=O)cc3n2CC2CC2)nn2cc(C(=O)N3CC4CCC3[C@@H]4N)ccc12 (stereo partly drawn) [Example 90, 5-(2-(6-((7R)-7-Amino-2-azabicyclo[2.2.1]heptane-2-carbonyl)-3-methylpyrazolo[1,5-a]pyridin-2-yl)-1-(cyclopropylmethyl)-1H-indol-6-yl)isoindolin-1-one] |
| 12 nM | Cc1c(-c2cc3ccc(C(C)(C)O)nc3n2CC2CC2)nn2cc(C(=O)N3CC4CCC3[C@@H]4N)ccc12 (stereo partly drawn) [Example 102, ((7R)-7-Amino-2-azabicyclo[2.2.1]heptan-2-yl)(2-(1-(cyclopropylmethyl)-6-(2-hydroxypropan-2-yl)-1H-pyrrolo[2,3-b]pyridin-2-yl)-3-methylpyrazolo[1,5-a]pyridin-6-yl)methanone] |
| 11 nM | Cc1c(-c2cc3ccc(C(C)(O)C(F)(F)F)cc3n2CC2CC2)nn2cc(C(=O)N3CC4CCC3[C@@H]4N)ccc12 (stereo partly drawn) [Example 101, ((7R)-7-Amino-2-azabicyclo[2.2.1]heptan-2-yl)(2-(1-(cyclopropylmethyl)-6-(1,1,1-trifluoro-2-hydroxypropan-2-yl)-1H-indol-2-yl)-3-methylpyrazolo[1,5-a]pyridin-6-yl)methanone] |
